This is an account of results in patent publication US20260226047A1, “BENZIMIDAZOLE AND AZA-BENZIMIDAZOLE BASED IL-17A MODULATORS AND USES THEREOF” (DICE ALPHA, INC., priority 2023, published 2026).

By IC50 is commonly meant the concentration that inhibits the measured activity by half.

SMILES strings stand for the structures. Bounds are passed on as bounds.

This assay has as its target T1, IL-17A/A (Homo sapiens, UniProt Q16552).
T1 construct: purchased Genscript Z03228
T1 sequence (Q16552 24-155): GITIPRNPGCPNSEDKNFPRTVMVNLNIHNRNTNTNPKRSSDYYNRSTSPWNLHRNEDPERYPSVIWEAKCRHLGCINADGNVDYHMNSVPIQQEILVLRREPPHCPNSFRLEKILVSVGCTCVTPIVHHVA
The experiment in a line: IL-17A/A HEK-Blue Cell Assay. The class given is cell-based. The conditions noted are these: IL-17A/A inhibition, HEK-Blue IL-17A reporter cell line, SEAP readout at A630, incubated for 20 hours. Here is the method:
Example 3: IL-17A/A HEK-Blue Cell Assay
The HEK-Blue IL-17A reporter cell line (Fisher #NC1408637) was used for cell-based IL-17A/A inhibition assays. Cells were grown and prepared for assays according to the manufacturer's instructions. This cell line consists of HEK 293 cells that were designed to expressed IL-17RA, IL-17RC, and the ActI adapter molecule, the combination of which, when stimulated by IL-17A/A activates a NFκB promoter and drives expression of a recombinant Secreted Alkaline Phosphatase (SEAP) gene protein. Media from the cells is then added to a development reagent (Quanti-Blue Substrate, Fisher #NC9711613), and read at A630.
Compounds were titrated in DMSO, with a top final compound concentration of 10 μM, 1 uM, or 0.3 μM, and added to the cells immediately before adding IL-17A/A (Genscript #Z03228). The cells, compound, and IL-17A/A were then incubated for 20 hours before media was removed for SEAP analysis. The resulting inhibition curve was then analyzed using Graphpad Prism 7.0, and IC50 values were determined using a 4-parameter nonlinear fit. DMSO was added to a universal final concentration of 0.1% to optimize background.
`CCn1nccc1C(=O)N[C@H](c1nc2cc(CC3CCC(C(F)(F)F)NC3=O)cc(F)c2[nH]1)C(C1CC1)C1CC1` (stereo partly drawn) [Compound 52]: the IC50 was 100 to 1000 nM. As for `CCn1nccc1C(=O)N[C@H](c1nc2cc(CC3CCC(C(F)(F)F)NC3=O)cc(F)c2[nH]1)C(C1CC1)C1CC1` (stereo partly drawn) [Compound 53], the IC50 is 100 to 1000 nM.

With `CCn1nccc1C(=O)N[C@H](c1nc2cc(CC3CCC(C(F)(F)F)NC3=O)cc(F)c2[nH]1)C(C1CC1)C1CC1` (stereo partly drawn) [Compound 54], the IC50 was above 1000 nM.

Regarding `CCn1nccc1C(=O)N[C@H](c1nc2cc(CC3CCC(C(F)(F)F)NC3=O)cc(F)c2[nH]1)C(C1CC1)C1CC1` (stereo partly drawn) [Compound 55], the IC50 is above 1000 nM. On to `CCn1nccc1C(=O)N[C@H](c1nc2cc(CC3CCC(C(F)(F)F)NC3=O)cc(F)c2[nH]1)C(C1CC1)C1CC1` (stereo partly drawn) [Compound 56], for which the IC50 fell in the range of 100 to 1000 nM. With `CCn1nccc1C(=O)N[C@H](c1nc2cc(CC3CCNC3=O)cc(C#N)c2[nH]1)C1CCC(F)(F)CC1` (stereo partly drawn) [Compound 57], the IC50 was 100 to 1000 nM. On to `CC(C)n1nccc1C(=O)N[C@H](c1nc2ccc(C[C@H]3CCNC3=O)cc2[nH]1)C(C1CC1)C1CC1` [Compound 58], for which the IC50 was 100 to 1000 nM. For the compound `Cn1nccc1C(=O)N[C@H](c1nc2ccc(C[C@H]3CCNC3=O)cc2[nH]1)C(C1CC1)C1CC1` [Compound 59], the IC50 was 100 to 1000 nM. Then `CCn1nccc1C(=O)N[C@H](c1nc2ccc(C[C@H]3CCNC3=O)cc2[nH]1)[C@H]1CC[C@H](C)CC1` [Compound 61], with below 100 nM; and `CCn1nccc1C(=O)N[C@H](c1nc2ccc(C[C@H]3CCNC3=O)cc2[nH]1)[C@H](c1ccccc1Cl)C(C)C` [Compound 62], with above 1000 nM; and `CC[C@@H](c1ccc(F)cc1)[C@H](NC(=O)c1ccnn1CC)c1nc2ccc(C[C@H]3CCNC3=O)cc2[nH]1` [Compound 63], with above 1000 nM.

With `CCn1nccc1C(=O)N[C@H](c1nc2ccc(C[C@H]3CCNC3=O)cc2[nH]1)C(C1CCC1)C1CCC1` [Compound 64], the IC50 fell in the range of 100 to 1000 nM.

On to `CC[C@@H](C1CCC1)[C@H](NC(=O)c1ccnn1CC)c1nc2ccc(C[C@H]3CCNC3=O)cc2[nH]1` [Compound 65], for which the IC50 lay within 100 to 1000 nM. In the case of `CCn1nccc1C(=O)N[C@H](c1nc2ccc(C[C@H]3CCNC3=O)cc2[nH]1)[C@@H](C)[C@H]1CC[C@H](C)CC1` [Compound 66], the IC50 was in the range of 100 to 1000 nM. Turning to `Cc1nonc1C(=O)N[C@H](c1nc2ccc(C[C@H]3CCNC3=O)cc2[nH]1)C1CCC(F)(F)CC1` [Compound 67], the IC50 was in the range of 100 to 1000 nM. With `O=C1N[C@H](C(F)(F)F)C[C@H]1Cc1ccc2nc([C@@H](NC(=O)C3(F)CC3)C(C3CC3)C3CC3)[nH]c2c1` [Compound 68], the IC50 is above 1000 nM. Consider `O=C1N[C@H](C(F)(F)F)C[C@@H]1Cc1ccc2nc([C@@H](NC(=O)C3(F)CC3)C(C3CC3)C3CC3)[nH]c2c1` [Compound 69], for which the IC50 lay within 100 to 1000 nM. On to `CCn1nccc1C(=O)N[C@H](c1nc2ccc(CC3CCC(C)NC3=O)cc2[nH]1)C(C1CC1)C1CC1` (stereo partly drawn) [Compound 70], for which the IC50 was in the range of 100 to 1000 nM. As for `CCn1nccc1C(=O)N[C@H](c1nc2ccc(CC3CC(C(F)(F)F)CNC3=O)cc2[nH]1)C(C1CC1)C1CC1` (stereo partly drawn) [Compound 71], the IC50 was in the range of 100 to 1000 nM.

Take `CCn1nccc1C(=O)N[C@H](c1nc2ccc(CC3CC(C)NC3=O)cc2[nH]1)C(C1CC1)C1CC1` (stereo partly drawn) [Compound 72]: the IC50 was 100 to 1000 nM.

`CCn1nccc1C(=O)N[C@H](c1nc2ccc(CC3CC(F)(F)CNC3=O)cc2[nH]1)C(C1CC1)C1CC1` (stereo partly drawn) [Compound 73]: the IC50 fell in the range of 100 to 1000 nM. Consider `CCn1nccc1C(=O)N[C@H](c1nc2ccc(C[C@H]3CC(F)(F)CNC3=O)cc2[nH]1)C(C1CC1)C1CC1` [Compound 74], for which the IC50 is below 100 nM.

In the case of `CCn1nccc1C(=O)N[C@H](c1nc2ccc(C[C@@H]3CC(F)(F)CNC3=O)cc2[nH]1)C(C1CC1)C1CC1` [Compound 75], the IC50 was in the range of 100 to 1000 nM. Consider `CCn1nccc1C(=O)N[C@H](c1nc2ccc(CC3C(=O)NC4CC43)cc2[nH]1)C(C1CC1)C1CC1` (stereo partly drawn) [Compound 76], for which the IC50 lay in the range of 100 to 1000 nM. Turning to `CCn1nccc1C(=O)N[C@H](c1nc2ccc(CC3C(=O)NCC3C(F)(F)F)cc2[nH]1)C(C1CC1)C1CC1` (stereo partly drawn) [Compound 77], the IC50 fell in the range of 100 to 1000 nM. Consider `CCn1nccc1C(=O)N[C@H](c1nc2ccc(C(COC)C3C[C@@H](C(F)(F)F)NC3=O)cc2[nH]1)C(C1CC1)C1CC1` (stereo partly drawn) [Compound 78], for which the IC50 is above 1000 nM. As to `CCn1nccc1C(=O)N[C@H](c1nc2ccc(C(COC)C3C[C@@H](C(F)(F)F)NC3=O)cc2[nH]1)C(C1CC1)C1CC1` (stereo partly drawn) [Compound 79], the IC50 is 100 to 1000 nM.

As to `CCn1nccc1C(=O)N[C@H](c1nc2ccc(C(COC)C3C[C@@H](C(F)(F)F)NC3=O)cc2[nH]1)C(C1CC1)C1CC1` (stereo partly drawn) [Compound 80], the IC50 lay in the range of 100 to 1000 nM. For the compound `CCn1nccc1C(=O)N[C@H](c1nc2ccc(C(C)C3CCCNC3=O)cc2[nH]1)C(C1CC1)C1CC1` (stereo partly drawn) [Compound 81], the IC50 was above 1000 nM. For `CCn1nccc1C(=O)N[C@H](c1nc2ccc(C(C)C3CCCNC3=O)cc2[nH]1)C(C1CC1)C1CC1` (stereo partly drawn) [Compound 82], the IC50 was 100 to 1000 nM. With `CCn1nccc1C(=O)N[C@H](c1nc2ccc(C(C)C3CCCNC3=O)cc2[nH]1)C(C1CC1)C1CC1` (stereo partly drawn) [Compound 83], the IC50 was above 1000 nM.

Turning to `CCn1nccc1C(=O)N[C@H](c1nc2ccc(C(C)C3CCCNC3=O)cc2[nH]1)C(C1CC1)C1CC1` (stereo partly drawn) [Compound 84], the IC50 is 100 to 1000 nM. The value for `CCn1nccc1C(=O)N[C@H](c1nc2ccc(C(C)C3CCCNC3=O)cc2[nH]1)C(C1CC1)C1CC1` (stereo partly drawn) [Compound 85] was above 1000 nM; that for `CCn1nccc1C(=O)N[C@H](c1nc2ccc(C[C@H]3CCCNC3=O)cc2[nH]1)C1CCC(F)(F)CC1` [Compound 86] was above 1000 nM. As to `CCn1nccc1C(=O)N[C@H](c1nc2ccc(C[C@H]3CCCNC3=O)cc2[nH]1)[C@H]1CC[C@H](C)CC1` [Compound 87], the IC50 is above 1000 nM. Then `CCn1nccc1C(=O)N[C@H](c1nc2ccc(CC3CCCNC3=O)cc2[nH]1)[C@H]1CC[C@H](C(F)(F)F)CC1` (stereo partly drawn) [Compound 88], with above 1000 nM.
